Results: patent US20160158200A1, “Combinations of Hepatitis C Virus Inhibitors” (priority 2013, published 2016)

test system: HCV genotype-1a variant with glutamine 30 changed to glutamate in the NS5A protein; assay type: cell-based; conditions: test compound titrated with BMS-790052 fixed at 200 nM; genotype 1a Q30E replicon
Outline: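 Synergy was assessed by combining several fixed amounts of an NS5A-targeting compound with a titration of the second compound of interest.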

SMILES | Fold-Synergistic 1a (Q30E)
CC(C)[C@H](NC(=O)c1cccc(F)c1)c1ncc(-c2ccc(-c3ccc(-c4cnc([C@@H](NC(=O)c5cccc(F)c5)C(C)C)[nH]4)cc3)cc2)[nH]1 [Compound S-73] | >100 fold
CC(C)[C@H](NC(=O)c1cccc(Cl)c1)c1ncc(-c2ccc(-c3ccc(-c4cnc([C@@H](NC(=O)c5cccc(Cl)c5)C(C)C)[nH]4)cc3)cc2)[nH]1 [Compound S-74] | >100 fold
CC(C)[C@H](NC(=O)c1ccc(Cl)c(Cl)c1)c1ncc(-c2ccc(-c3ccc(-c4cnc([C@@H](NC(=O)c5ccc(Cl)c(Cl)c5)C(C)C)[nH]4)cc3)cc2)[nH]1 [Compound S-75] | >100 fold
CC(C)[C@H](NC(=O)c1cc(Cl)cc(Cl)c1)c1ncc(-c2ccc(-c3ccc(-c4cnc([C@@H](NC(=O)c5cc(Cl)cc(Cl)c5)C(C)C)[nH]4)cc3)cc2)[nH]1 [Compound S-76] | >100 fold
COc1cccc(C(=O)N[C@H](c2ncc(-c3ccc(-c4ccc(-c5cnc([C@@H](NC(=O)c6cccc(OC)c6)C(C)C)[nH]5)cc4)cc3)[nH]2)C(C)C)c1 [Compound S-77] | >100 fold
COc1ccc(C(=O)N[C@H](c2ncc(-c3ccc(-c4ccc(-c5cnc([C@@H](NC(=O)c6ccc(OC)c(OC)c6)C(C)C)[nH]5)cc4)cc3)[nH]2)C(C)C)cc1OC [Compound S-78] | >100 fold
CC(C)[C@H](NC(=O)c1cccc(C(F)(F)F)c1)c1ncc(-c2ccc(-c3ccc(-c4cnc([C@@H](NC(=O)c5cccc(C(F)(F)F)c5)C(C)C)[nH]4)cc3)cc2)[nH]1 [Compound S-79] | >100 fold
Cc1cccc(C(=O)N[C@H](c2ncc(-c3ccc(-c4ccc(-c5cnc([C@@H](NC(=O)c6cccc(C)c6)C(C)C)[nH]5)cc4)cc3)[nH]2)C(C)C)c1 [Compound S-80] | >100 fold
CC(C)[C@H](NC(=O)c1ccc(C#N)cc1)c1ncc(-c2ccc(-c3ccc(-c4cnc([C@@H](NC(=O)c5ccc(C#N)cc5)C(C)C)[nH]4)cc3)cc2)[nH]1 [Compound S-81] | >100 fold
CC(C)[C@H](NC(=O)c1ccc(F)cc1)c1ncc(-c2ccc(-c3ccc(-c4cnc([C@@H](NC(=O)c5ccc(F)cc5)C(C)C)[nH]4)cc3)cc2)[nH]1 [Compound S-82] | >100 fold
CC(C)[C@H](NC(=O)c1ccc(Cl)cc1)c1ncc(-c2ccc(-c3ccc(-c4cnc([C@@H](NC(=O)c5ccc(Cl)cc5)C(C)C)[nH]4)cc3)cc2)[nH]1 [Compound S-83] | >100 fold
CC(C)[C@H](NC(=O)c1ccc(C(F)(F)F)cc1)c1ncc(-c2ccc(-c3ccc(-c4cnc([C@@H](NC(=O)c5ccc(C(F)(F)F)cc5)C(C)C)[nH]4)cc3)cc2)[nH]1 [Compound S-84] | >100 fold
Cc1onc(-c2ccccc2)c1C(=O)N[C@H](c1ncc(-c2ccc(-c3ccc(-c4cnc([C@@H](NC(=O)c5c(-c6ccccc6)noc5C)C(C)C)[nH]4)cc3)cc2)[nH]1)C(C)C [Compound S-85] | >100 fold
CC(C)[C@H](NC(=O)c1cccc2ccccc12)c1ncc(-c2ccc(-c3ccc(-c4cnc([C@@H](NC(=O)c5cccc6ccccc56)C(C)C)[nH]4)cc3)cc2)[nH]1 [Compound S-86] | >100 fold
CC(C)[C@H](NC(=O)c1cc2ccccc2o1)c1ncc(-c2ccc(-c3ccc(-c4cnc([C@@H](NC(=O)c5cc6ccccc6o5)C(C)C)[nH]4)cc3)cc2)[nH]1 [Compound S-87] | >100 fold
CC(C)[C@H](NC(=O)c1ccc(F)cc1Cl)c1ncc(-c2ccc(-c3ccc(-c4cnc([C@@H](NC(=O)c5ccc(F)cc5Cl)C(C)C)[nH]4)cc3)cc2)[nH]1 [Compound S-88] | >100 fold

SMILES | Fold-Synergistic 1a (Q30E)
CC(C)[C@H](NC(=O)c1ccc(F)cc1F)c1ncc(-c2ccc(-c3ccc(-c4cnc([C@@H](NC(=O)c5ccc(F)cc5F)C(C)C)[nH]4)cc3)cc2)[nH]1 [Compound S-89] | >100 fold
Cc1ccoc1C(=O)N[C@H](c1ncc(-c2ccc(-c3ccc(-c4cnc([C@@H](NC(=O)c5occc5C)C(C)C)[nH]4)cc3)cc2)[nH]1)C(C)C [Compound S-90] | >100 fold
CC(C)[C@H](NC(=O)c1ccccc1N(C)C)c1ncc(-c2ccc(-c3ccc(-c4cnc([C@@H](NC(=O)c5ccccc5N(C)C)C(C)C)[nH]4)cc3)cc2)[nH]1 [Compound S-91] | >100 fold
CC(C)[C@H](NC(=O)c1c(F)cc(F)cc1F)c1ncc(-c2ccc(-c3ccc(-c4cnc([C@@H](NC(=O)c5c(F)cc(F)cc5F)C(C)C)[nH]4)cc3)cc2)[nH]1 [Compound S-92] | >100 fold
CC(C)[C@H](NC(=O)c1ccc(Cl)cc1F)c1ncc(-c2ccc(-c3ccc(-c4cnc([C@@H](NC(=O)c5ccc(Cl)cc5F)C(C)C)[nH]4)cc3)cc2)[nH]1 [Compound S-93] | >100 fold
CC(C)[C@H](NC(=O)c1ccccc1C#N)c1ncc(-c2ccc(-c3ccc(-c4cnc([C@@H](NC(=O)c5ccccc5C#N)C(C)C)[nH]4)cc3)cc2)[nH]1 [Compound S-94] | >100 fold
Cc1nn(-c2ccccc2)nc1C(=O)N[C@H](c1ncc(-c2ccc(-c3ccc(-c4cnc([C@@H](NC(=O)c5nn(-c6ccccc6)nc5C)C(C)C)[nH]4)cc3)cc2)[nH]1)C(C)C [Compound S-95] | >10 fold
Cc1noc(C)c1C(=O)N[C@H](c1ncc(-c2ccc(-c3ccc(-c4cnc([C@@H](NC(=O)c5c(C)noc5C)C(C)C)[nH]4)cc3)cc2)[nH]1)C(C)C [Compound S-96] | >100 fold
Cc1c(F)cccc1C(=O)N[C@H](c1ncc(-c2ccc(-c3ccc(-c4cnc([C@@H](NC(=O)c5cccc(F)c5C)C(C)C)[nH]4)cc3)cc2)[nH]1)C(C)C [Compound S-97] | >100 fold
Cc1cc(C(=O)N[C@H](c2ncc(-c3ccc(-c4ccc(-c5cnc([C@@H](NC(=O)c6cc(C)oc6C)C(C)C)[nH]5)cc4)cc3)[nH]2)C(C)C)c(C)o1 [Compound S-98] | >100 fold
CCn1nc(C)cc1C(=O)N[C@H](c1ncc(-c2ccc(-c3ccc(-c4cnc([C@@H](NC(=O)c5cc(C)nn5CC)C(C)C)[nH]4)cc3)cc2)[nH]1)C(C)C [Compound S-99] | >10 fold
CC(C)[C@H](NC(=O)c1ccno1)c1ncc(-c2ccc(-c3ccc(-c4cnc([C@@H](NC(=O)c5ccno5)C(C)C)[nH]4)cc3)cc2)[nH]1 [Compound S-100] | >100 fold
CC(C)[C@H](NC(=O)c1cc(C(C)(C)C)nn1C)c1ncc(-c2ccc(-c3ccc(-c4cnc([C@@H](NC(=O)c5cc(C(C)(C)C)nn5C)C(C)C)[nH]4)cc3)cc2)[nH]1 [Compound S-101] | >100 fold
Cc1cc(C(=O)N[C@H](c2ncc(-c3ccc(-c4ccc(-c5cnc([C@@H](NC(=O)c6cc(C)oc6C(F)(F)F)C(C)C)[nH]5)cc4)cc3)[nH]2)C(C)C)c(C(F)(F)F)o1 [Compound S-102] | >100 fold
CC(C)[C@H](NC(=O)c1ccc(C(F)(F)F)nc1)c1ncc(-c2ccc(-c3ccc(-c4cnc([C@@H](NC(=O)c5ccc(C(F)(F)F)nc5)C(C)C)[nH]4)cc3)cc2)[nH]1 [Compound S-103] | >100 fold
Cc1oncc1C(=O)N[C@H](c1ncc(-c2ccc(-c3ccc(-c4cnc([C@@H](NC(=O)c5cnoc5C)C(C)C)[nH]4)cc3)cc2)[nH]1)C(C)C [Compound S-104] | >100 fold
